The results in this text go back to patent US10017522B2, “Alpha helix mimetics and methods relating thereto” (PRISM BioLab Co., Ltd., priority 2009, dated 2018).

This assay has as its system Wnt signaling pathway. The experiment in a line: Reporter gene assay (SuperTOPFLASH luciferase, LiCl stimulated, Hek-293 STF1.1 cells). The class given is cell-based. The note with it: Homo sapiens, HEK293; at the concentration of 10 μM; stably transfected cell line Hek-293, STF1.1; 20 mM LiCl medium added, 24 hours; read-out: inhibitory activity determined by reporter gene assay. On the procedure:
Screening for inhibitory action of the Wnt signaling pathway can be carried out according to the following procedure using the stably transfected cell line Hek-293, STF1.1. • Growth Medium: DMEM, 10% FBS, Pen-Strep, supplemented with 400 μg/mL G418 to maintain selection of SuperTOPFLASH driven Luciferase gene • 1. On the day prior to assay, split cells into a white opaque 96-well plate at 20,000 cells per well in 200 μl of complete growth medium • 2. Incubate the plate overnight at 37° C., 5% CO2 and allow the cells to attach • 3. Next day, prepare the inhibitors to be tested in complete growth medium, without G418, at 2× the desired final concentration (all conditions are done in duplicates) • 4. Carefully remove the old medium from each well using a multiple pipettor • 5. […] Read plate on the Packard TopCount
In the tables, the compounds having inhibitory activity more than 50% at the concentration of 10 microM (μM) determined by reporter gene assay are shown below.
Screening for inhibitory action of the Wnt signaling pathway was carried out according to the following procedure using the stably transfected cell line Hek-293, STF1.1 • Growth Medium: DMEM, 10% FBS, Pen-Strep, supplemented with 400 μg/mL G418 to maintain selection of SuperTOPFLASH driven Luciferase gene • 1. […] Read plate on the Packard TopCount

On to `CN1[C@@H](Cc2ccc(O)cc2)C(=O)N(Cc2cccc3ccccc23)CC2N(C(=O)NCc3ccccc3)CCC(=O)N21` (stereo partly drawn) [Example I-268, (2S)—N-benzyl-2-(4-hydroxybenzyl)-1-methyl-4-(naphthalen-1-ylmethyl)-3,9-dioxooctahydropyrimido[1,2-b][1,2,5]triazepine-6(7H)-carboxamide], for which the inhibition at 10 µM is not below 50%.
